PMC3226715 (Chemical research in toxicology, 2011)

Tests used:
GRd = details: rat renal proximal tubule cells treated with DCVC; cited from earlier work
MDH = details: rat liver mitochondria in the presence of DCVC; cited from earlier work
[1] = Stability in isolated rat plasma; assay type: in vitro ADME, male Sprague-Dawley rat; details: 50 µM, 37°C
[2] = Stability under acidic conditions; assay type: physicochemical; details: 0.2 M HCl/KCl buffer pH 2, several hours at 37°C (data not shown)
[3] = Half-life in the presence of GSH; assay type: physicochemical; details: 0.31 mM compound, 1.02 mM GSH (3:10 molar ratio), phosphate buffer pH 7.4, 37°C
[4] = Stability in isolated rat whole blood; assay type: in vitro ADME, male Sprague-Dawley rat; details: 50 µM, 37°C
[5] = Stability in phosphate buffer pH 7.4; assay type: physicochemical
[6] = system: rat kidney cytosol proteins; assay: Binding of NB-DCVCS to kidney cytosolic proteins, anti-biotin immunoblot; design: species or system male Sprague Dawley rat; details: 6 µg/µL cytosol, 3 h, 37°C
[7] = molecular target: T1, porcine heart mitochondrial malate dehydrogenase (MDH) (Sus scrofa, UniProt P00346); assay: Covalent modification of the model enzyme MDH, anti-biotin immunoblot; assay type: binding; details: 10 µM NB-DCVCS, 3 h, 37°C, 0.5 mg/mL protein
T1 sequence (P00346 25-338): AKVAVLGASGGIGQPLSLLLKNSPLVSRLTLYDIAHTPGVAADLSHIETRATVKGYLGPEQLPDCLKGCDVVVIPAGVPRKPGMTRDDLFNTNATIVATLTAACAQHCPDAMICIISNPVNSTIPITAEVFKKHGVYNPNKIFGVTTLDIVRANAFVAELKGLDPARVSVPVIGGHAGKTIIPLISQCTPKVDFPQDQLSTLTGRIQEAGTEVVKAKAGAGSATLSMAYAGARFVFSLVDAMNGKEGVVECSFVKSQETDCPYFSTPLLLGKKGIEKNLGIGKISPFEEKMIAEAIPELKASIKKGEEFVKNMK

[8] = molecular target: glutathione reductase (GRd) from baker's yeast (Saccharomyces cerevisiae, UniProt P41921); assay: Covalent modification of the model enzyme GRd, anti-biotin immunoblot; assay type: binding; details: 10 µM NB-DCVCS, 3 h, 37°C, 0.5 mg/mL protein
Chain of glutathione reductase (GRd) from baker's yeast (P41921 whole entry): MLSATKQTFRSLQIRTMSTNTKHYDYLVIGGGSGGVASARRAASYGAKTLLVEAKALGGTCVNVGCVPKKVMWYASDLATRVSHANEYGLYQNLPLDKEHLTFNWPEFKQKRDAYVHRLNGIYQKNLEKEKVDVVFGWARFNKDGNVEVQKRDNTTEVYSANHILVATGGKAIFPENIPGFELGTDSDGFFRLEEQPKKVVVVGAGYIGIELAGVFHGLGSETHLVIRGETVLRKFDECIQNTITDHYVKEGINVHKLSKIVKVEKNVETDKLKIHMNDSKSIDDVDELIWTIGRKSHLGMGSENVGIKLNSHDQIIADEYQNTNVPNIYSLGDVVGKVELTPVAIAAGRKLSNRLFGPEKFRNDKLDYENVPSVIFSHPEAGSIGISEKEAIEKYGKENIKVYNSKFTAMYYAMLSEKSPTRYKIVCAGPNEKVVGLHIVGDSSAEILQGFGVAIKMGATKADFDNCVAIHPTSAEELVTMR

N[C@@H](CSC(Cl)=CCl)C(=O)O [DCVC]
GRd activity (GRd): inhibited | MDH activity (MDH): inhibited

O=C(CCCC[C@@H]1SC[C@@H]2NC(=O)N[C@@H]21)N[C@@H](C[S+]([O-])C(Cl)=CCl)C(=O)O (stereo partly shown) [NB-DCVCS]
DCVCS formation from NB-DCVCS (amide bond cleavage) in plasma [1]: No DCVCS formation was observed | half-life in plasma [1]: 40 min | detection in plasma after 150 min ([1]; after 150 min): not detectable | stability under acidic conditions [2]: stable | half-life in the presence of GSH [3]: 39.6 min | DCVCS formation from NB-DCVCS (amide bond cleavage) in whole blood [4]: No DCVCS formation was observed | half-life in whole blood [4]: 68.5 min | detection in whole blood after 150 min ([4]; after 150 min): not detectable | time stable in phosphate buffer ([5]; phosphate buffer, 37°C): greater than 120 min | stability in phosphate buffer pH 7.4 ([5]; several hours at 37°C (data not shown)): stable | immunoblot signal of modified kidney cytosol proteins ([6]; 312.5 nM to 5 µM NB-DCVCS): concentration-dependent increases in signal and the number of bands | NB-DCVCS concentration at which modified proteins were detected [6]: ≥ 625 nM | modification of malate dehydrogenase (immunoblot) [7]: extensively modified | modification of glutathione reductase (immunoblot) [8]: extensively modified
